What was measured:
Experiment in all cases: relative viability (nuclei count vs DMSO), 5 days (fraction); higher = more cells survive
Carfilzomib + Dasatinib = compound: CC(C)C[C@H](NC(=O)[C@H](CCc1ccccc1)NC(=O)CN1CCOCC1)C(=O)N[C@@H](Cc1ccccc1)C(=O)N[C@@H](CC(C)C)C(=O)[C@@]1(C)CO1 [Carfilzomib] + Cc1nc(Nc2ncc(C(=O)Nc3c(C)cccc3Cl)s2)cc(N2CCN(CCO)CC2)n1 [Dasatinib] (partner 0.075 µM)
Summary of the method: (§1)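 Relative viability is defined as nuclei in treated wells over nuclei in vehicle wells. Duplicate plates were run and medians reported. Lung cancer cell lines in 1536-well plates were dosed by pin tool one day after seeding, with one drug or with a fixed anchor-drug dose plus five library-drug doses (not always all listed) in √10 steps, and nuclei were counted after 5 days.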

Crizotinib + Bortezomib = compound: C[C@@H](Oc1cc(-c2cnn(C3CCNCC3)c2)cnc1N)c1c(Cl)ccc(F)c1Cl [Crizotinib] + CC(C)C[C@H](NC(=O)[C@H](Cc1ccccc1)NC(=O)c1cnccn1)B(O)O [Bortezomib] (partner 0.002 µM)
Summary of the method: as §1

Crizotinib + Olaparib = compound: C[C@@H](Oc1cc(-c2cnn(C3CCNCC3)c2)cnc1N)c1c(Cl)ccc(F)c1Cl [Crizotinib] + O=C(c1cc(Cc2n[nH]c(=O)c3ccccc23)ccc1F)N1CCN(C(=O)C2CC2)CC1 [Olaparib] (partner 8 µM)
Summary of the method: as §1

Olaparib + Pemetrexed = compound: O=C(c1cc(Cc2n[nH]c(=O)c3ccccc23)ccc1F)N1CCN(C(=O)C2CC2)CC1 [Olaparib] + Nc1nc2[nH]cc(CCc3ccc(C(=O)N[C@@H](CCC(=O)O)C(=O)O)cc3)c2c(=O)[nH]1 [Pemetrexed] (partner 0.2 µM)
Summary of the method: as §1

Cell Line	relative viability (Carfilzomib + Dasatinib; first compound 0.001 µM)	relative viability (Carfilzomib + Dasatinib; first compound 0.003162 µM)	relative viability (Carfilzomib + Dasatinib; first compound 0.01 µM)	relative viability (Carfilzomib + Dasatinib; first compound 0.03162 µM)	relative viability (Carfilzomib + Dasatinib; first compound 0.1 µM)	relative viability (Crizotinib + Bortezomib; first compound 0.01 µM)	relative viability (Crizotinib + Bortezomib; first compound 0.03162 µM)	relative viability (Crizotinib + Bortezomib; first compound 0.1 µM)	relative viability (Crizotinib + Bortezomib; first compound 0.3162 µM)	relative viability (Crizotinib + Bortezomib; first compound 1 µM)	relative viability (Crizotinib + Olaparib; first compound 0.01 µM)	relative viability (Crizotinib + Olaparib; first compound 0.03162 µM)	relative viability (Crizotinib + Olaparib; first compound 0.1 µM)	relative viability (Crizotinib + Olaparib; first compound 0.3162 µM)	relative viability (Crizotinib + Olaparib; first compound 1 µM)	relative viability (Olaparib + Pemetrexed; first compound 0.08 µM)	relative viability (Olaparib + Pemetrexed; first compound 0.253 µM)	relative viability (Olaparib + Pemetrexed; first compound 2.53 µM)	relative viability (Olaparib + Pemetrexed; first compound 8 µM)
NCI-H661	0.911	1.07	1.03	0.72	0.172	0.759	0.768	0.72	0.777	0.817	0.703	0.761	0.741	0.81	0.737	0.954	0.871	0.901	0.795
NCI-H1993	0.604	0.597	0.581	0.467	0.453	0.937	1.05	0.833	0.899	0.76	0.919	0.948	–	0.924	0.9	0.622	0.658	0.627	0.556
NCI-H23	0.811	0.748	0.845	0.158	0.125	1.02	1.09	1.03	–	0.979	0.317	0.271	0.317	–	0.388	0.756	0.614	0.654	0.473
LCLC-97TM1	0.776	0.89	0.837	0.774	0.397	0.641	0.601	1.09	0.435	0.519	0.308	0.32	0.353	0.384	0.428	0.209	0.209	0.2	0.141
NCI-H1915	0.271	0.344	0.299	0.174	0.102	0.98	0.921	1.06	–	0.963	0.228	0.257	0.259	0.222	0.26	0.553	0.493	0.511	0.419
LOU-NH91	0.523	0.618	0.564	0.273	0.281	0.457	0.465	0.451	0.484	0.458	0.917	0.876	0.925	0.848	0.912	0.389	0.366	0.381	0.343
EKVX	0.49	0.342	0.597	0.478	0.214	1.06	1.05	0.959	0.934	1.1	0.754	0.922	0.866	0.777	0.793	0.425	0.401	0.418	0.365
SK-LU-1	0.167	0.189	0.236	0.0906	0.117	1.19	1.13	1.46	0.794	1.3	0.504	0.438	0.451	0.477	0.405	1.12	0.865	0.866	0.635
LXF-289	0.151	0.312	0.192	0.0373	0.0553	0.917	0.972	1.01	0.85	0.967	0.994	1.12	1.15	0.993	1.11	1	0.883	0.963	1
NCI-H2009	0.293	0.386	0.3	0.113	0.0713	0.896	1.04	1.09	0.837	0.96	0.666	0.712	0.697	0.685	0.741	1.15	1.03	1.01	0.842
HCC-827	0.3	0.306	0.239	0.374	0.273	0.887	1.06	1.14	0.999	0.931	0.618	0.58	0.637	0.517	0.655	0.27	0.275	0.253	0.261
NCI-H3122	0.868	0.925	0.909	0.69	0.162	0.96	0.942	1.09	0.889	0.989	0.597	0.57	0.61	0.637	0.631	0.202	0.194	0.191	0.18
NCI-H2126	0.655	0.641	0.705	0.655	0.268	1.04	1.13	1.2	–	1.16	0.81	0.936	0.952	0.897	0.907	0.743	0.649	0.663	0.681
HARA	0.324	0.312	0.32	0.0493	0.0578	1.02	1.08	1.11	1.13	1.12	0.876	0.929	0.957	0.793	0.635	0.274	0.251	0.272	0.232
LC-2-ad	0.475	0.711	0.796	0.475	0.256	1.06	1.07	1	–	1.04	0.806	0.689	0.712	–	0.751	0.25	0.252	0.28	0.276
UMC-11	0.52	0.412	0.415	0.393	0.184	0.615	0.989	0.695	0.199	0.9	0.35	0.306	0.375	0.494	0.317	0.806	0.683	0.691	0.537
EMC-BAC-2	0.327	0.363	0.35	0.256	0.256	1.04	1.08	0.997	1	1.03	0.501	0.489	0.499	–	0.474	0.473	0.478	0.472	0.491
